Read-outs that look alike come from different tables or passages of the source. Where a SMILES comes first, the peptide text is derived from it.
Assays:
[1] = system: E-cadherin protein levels in melanocytes (FM2030) and melanoma cells (SKMEL28); assay: Down-regulation of E-cadherin by ET-1, immunoblot analysis of lysates; format: cell-based, human; details: for blocking of E-cadherin down-regulation by ET-1: antagonist 100 nM added one hour before 10 nM ET-1, 40 hours
Protocol: A375, WM-266-4 and WM-1 15 melanoma cells were purchased from the ATCC. Culture conditions were as described in I. M. Shih, et al., Am. J. Pathol., 145:837-45 (1994). Two weeks prior to ET-stimulation, water soluble 12,13-phorbol dibutyrate was substituted for phorbol 12-myristate, 13-acetate in melanocyte medium. ET stimulations of melanocytes were carried out in phorbol-free medium. Cell pellets were incubated for 15 minutes in 6 pellet volumes of RIPA buffer (1% NP4O, 0.5% deoxycholic acid, 10 mM Tris pH 8.3, 150 mM NaCl, 50 mM NaF, 0.2 mM sodium vanadate, 1× protease inhibitors-Boehringer complete). After centrifugation, lysates were quantitated using protein assay reagent (Biorad). 2.5 ug of protein per sample were subjected to SDS-PAGE unless samples were prepared from A375, WM-266-4 or WM-1 15 cells in which case 100 ug protein per sample was used. BQ123 and BQ788 at 100 nM were added to cells one hour before ET-1 addition. Antibodies: anti-E-cadherin (Transduction labs), anti-mouse IgG-HRP (Santa-Cruz). ECL detection system (Amersham). ET-1, ET-3, BQ123, BQ788 (Peninsula labs).
Human neonatal melanocytes (FM2030) and human melanoma cells (SKMEL28) were stimulated with 10 nM ET-1 over a 40 hour time course and protein lysates were examined for E-cadherin protein levels by immunoblot analysis (FIG. 1A). […] E-cadherin protein levels returned to baseline by 72 hours. A delayed and prolonged response to ET-1 has also been reported in other cell types. R. Marsault, et al., Biochem. Biophys. Res. Commun., 179:1408-3 (1991). […] In addition to E-cadherin, expression of the adhesion molecules ICAM 1, CD44 and N-cadherin is altered during melanoma development. M. Y. Hsu, et al., J. Investig. Dermatol. Symp. Proc., 1:188-94 (1996); S. Vermeulen, et al., Pathol. Res. Pract, 192:694-707 (1996).
There are two well characterized ET-1 receptors, an A subtype (ETA) and a B subtype (ETB). A. G. Baynash, et al., Cell, 79:1277 85 (1994). Both subtypes are expressed by melanocytes while most melanoma cells express only ETB. ET-1 binds with equal affinity to both receptor subtypes. G. Imokawa, et al., Biochem. J., 314:305-12 (1996). To determine which subtype mediated the observed response, the assay was repeated in the presence of a selective ETA antagonist (BQ123) and a selective ETB antagonist (BQ788).

[2] = system: β-catenin and p120CTN protein levels in melanocytes and melanoma cells; assay: Down-regulation of β-catenin and p120CTN by ET-1, immunoblot of crude membrane fractions; format: cell-based, human
Protocol: To analyze membrane-associated catenin proteins, crude membrane fractions were prepared as follows: cell pellets were resuspended in 6 pellet volumes of buffer A (10 mM HEPES pH 7.5, 1.5 mM MgCl2, 10 mM KCl, 10 mM NaF, 0.2 mM sodium vanadate, 1× protease inhibitors-Boehringer complete) and allowed to swell for 10 min. Cell membranes were disrupted by vortexing for 10 s and membranes pelleted by centrifugation for 10 s. Supernatants containing cytoplasmic proteins were discarded. Membrane pellets were solubilized in RIPA buffer as described above and snap frozen on dry ice. 0.5 ug and 2.5 ug of protein lystes were used to examine levels of β-catenin and p120^CTN proteins respectively. Antibodies: anti-β-catenin and anti-p120^CTN (Transduction labs).
The catenins are cytoplasmic proteins that bind E-cadherin and are critical for E-cadherin function in cellular adhesion. J. M. Daniel, et al., Bloessays, 19: 883-91 (1997). Considering the importance of the catenins in E-cadherin function, the effect of ET-1 stimulation upon the levels of these proteins was studied. In both melanocytes and melanoma cells, ET-1 stimulation decreased β-catenin protein levels and increased its electrophoretic mobility (FIG. 2A). The kinetics of this response correlated well with those of E-cadherin down-regulation. BQ788, a selective ETB antagonist, blocked ET-1 mediated down-regulation of β-catenin (FIG. 2B).

ETA receptors = details: cited from earlier work; for IC50: read-out: IC50, inhibition of 125I-labeled ET-1 binding
[3] = system: melanocytes and melanoma cells; assay: Immunofluorescence: subcellular localization of E-cadherin and β-catenin after ET-1; format: cell-based, human; details: 10 nM ET-1, 96 hours
Protocol: Cells were seeded onto collagen coated glass chamber slides in medium supplemented with 10 nM ET-1. At 48 hours, medium was aspirated and replaced with fresh ET-1 supplemented medium. At 96 hours, cells were fixed for 10 minutes in 3.7% formaldehyde/1 mM CaCl2/PBS, permeabilized for 10 minutes in 0.2% Triton X-100/PBS and blocked in 1% BSA/PBS for 10 minutes. Staining with E-cadherin and β-catenin antibodies diluted 1:50 in blocking buffer was performed for 45 minutes followed by a 30 minute incubation with goat-anti-mouse IgG-Cy3 (Jackson Immunoresearch labs) diluted 1:200 in blocking buffer. Cells were washed with PBS in between permeabilization and fixation steps and after antibody incubations.

[4] = system: caspase-8, caspases-3 and 7 in FM2030 and SKMEL28 cells; assay: Caspase activation by ET-1, immunoblot of crude cytoplasmic extracts; format: cell-based, human
Protocol: (§1) All caspase inhibitors contained a 16 amino-acid signal peptide derived from Kaposi Fibroblast Growth Factor to confer cell permeability (Calbiochem). Inhibitors were added to cells 34 hours post ET-1 stimulation and cells harvested at 40 hours. Crude cytoplasmic fractions were prepared as described for FIG. 2, except that supernatants containing cytoplasmic proteins were transferred to new tubes, supplemented with 0.11 volumes of buffer B (0.3M HEPES pH 7.9, 1.4M KCl, 0.03M MgCl2) and clarified by centrifugation. 10 ug of protein per sample was analyzed for caspase activation. Antibodies: Anti-caspase-8 antibody (UBI), Anti-caspase-3 and 7 (Transduction labs). Super Signal West Femto Maximum Sensitivity Substrate (PIERCE) was used for chemiluminescent detection of caspase proteins. Membranes were initially developed in a 1:5 dilution of the reagent made in H2O. If necessary, blots were briefly rinsed in TBS (10 mM Tris pH 8.0, 150 mM NaCl) and redeveloped with undiluted reagent for visualization of small fragments.
To determine whether caspase activation played a role in down-regulation of E-cadherin by ET-1, the assay was repeated in the presence of cell permeable inhibitors of a variety of different caspases (FIG. 3A). Strikingly, inhibitors containing the sequences IETD (inhibition of caspase-8) (SEQ ID NO:1) and DEVD (inhibition of caspases-3, 7, 8) (SEQ ID NO:2) were able to block down-regulation of E-cadherin by ET-1. The ‘DEVD’ (SEQ ID NO:2) inhibitor required a 10 fold higher concentration than the ‘IETD’ (SEQ ID NO:1) inhibitor in order to be effective (FIG. 3A. lower panel). Inhibitors specific for caspases 1, 4, 5, 6, 9 and 10 were without effect. […] Timepoints of maximal E-cadherin down-regulation coincided with the appearance of catalytically active caspase-8 subfragments (FIG. 3C, lower panel). Treatment of cells with a cell permeable inhibitor of caspase-8 prevented its proteolytic processing providing further evidence that caspase-8 activation is required for down-regulation of E-cadherin, β-catenin and p120^CTN by ET-1.

isolated vascular strips = details: read-out: EC50 as contractile agent; cited from earlier work
ETB receptors = details: cited from earlier work; for inhibition of 125I-labeled ET-1 binding: non cardiovascular tissues: kidney, adrenal gland, cerebellum
[5] = system: caspases (E-cadherin, β-catenin, p120CTN read-out) in SKMEL28 and FM2030 cells; assay: Cell permeable caspase inhibitors on down-regulation of E-cadherin and catenins by ET-1; format: cell-based, human; details: inhibitors added 34 hours post ET-1, harvested at 40 hours
Protocol: as §1
To determine whether caspase activation played a role in down-regulation of E-cadherin by ET-1, the assay was repeated in the presence of cell permeable inhibitors of a variety of different caspases (FIG. 3A). […]

[6] = ET-1 stimulation, melanocytes and melanoma cells

CC(C)C[C@@H]1NC(=O)[C@@H](C(C)C)NC(=O)[C@@H]2CCCN2C(=O)[C@@H](CC(=O)O)NC(=O)[C@@H](Cc2c[nH]c3ccccc23)NC1=O [BQ123, cyclo(D-Asp-Pro-D-Val-Leu-D-Trp)] (HELM PEPTIDE1{L.[dW].[dD].P.[dV]}$PEPTIDE1,PEPTIDE1,1:R1-5:R2$$$V2.0)
blocking of E-cadherin down-regulation by ET-1 [1]: not

CCCC[C@@H](NC(=O)[C@@H](Cc1cn(C(=O)OC)c2ccccc12)NC(=O)[C@H](CC(C)(C)C)NC(=O)N1[C@H](C)CCC[C@@H]1C)C(=O)O [BQ788]
blocking of E-cadherin down-regulation by ET-1 [1]: blocked
blocking of ET-1 mediated down-regulation of β-catenin ([2]; ETB antagonist with ET-1): blocked

ET-1: 21 amino-acid peptide secreted by keratinocytes; binds ETA and ETB
E-cadherin protein level after ET-1 stimulation ([1]; 10 nM ET-1, by 40 hours, FM2030 and SKMEL28): marked decrease
time at which E-cadherin protein levels returned to baseline ([1]; 10 nM ET-1, FM2030 and SKMEL28): ≤ 72 h
dose response of E-cadherin down-regulation ([1]; 0.5, 1.0, 10 nM ET-1, 40 hours, melanocytes and melanoma cells): dose responsive
protein levels of adhesion molecules ICAM 1, CD44 and N-cadherin ([1]; immunoblot of lysates after ET-1): no effect
E-cadherin mRNA levels ([1]; northern blot analysis): no ET-1 dependent decrease
down-regulation of E-cadherin in additional cell lines ([1]; one additional melanocyte line (CL-NHEM) and 4 additional melanoma lines): down-regulation of E-cadherin was observed in all lines except in A375 and WM 115
potency of inhibition of 125I-labeled ET-1 binding relative to ET-3 (ETA receptors; cardiovascular tissues): forty to seven hundred times more potently
E-cadherin staining in melanocytes [3]: loss of concentration of E-cadherin staining at points of cell:cell contact
E-cadherin staining in melanoma cells [3]: markedly decreased intensity of membranous staining
β-catenin staining in melanocytes [3]: loss of concentration of β-catenin at lateral cell borders and at points of cell: cell contact
β-catenin staining in melanoma cells [3]: loss of most of the membranous staining
melanocyte morphology ([3]; bright field micrographs): large nuclei with prominent nucleoli, abundant cytoplasm, polygonal morphology
p120CTN protein level and electrophoretic mobility ([2]; ET-1 stimulation): down-regulated and increased the electrophoretic mobility
β-catenin electrophoretic mobility [2, 6]: increased
β-catenin protein levels [2, 6]: decreased
β-catenin mRNA levels ([2]; northern blot analysis): failed to reveal an ET-1 dependent decrease
activation of distal caspases (caspases-3 and 7) ([4]; SKMEL28 and FM2030 cells): failure of ET-1 to activate distal caspases
duration of ET-1 dependent proteolytic processing of caspase-8 ([4]; after ET-1 stimulation): 46 h
time at which ET-1 dependent proteolytic processing of caspase-8 was first detectable ([4]; after ET-1 stimulation): approximately 36 hours
induction of apoptosis ([4]; melanocytes and melanoma cells): failure to induce apoptosis
EC50 (isolated vascular strips): 0.4 nM
inhibition of 125I-labeled ET-1 binding (ETB receptors): inhibited to the same extent

ET-3: ET isopeptide, a selective ETB agonist
down-regulation of E-cadherin by ET-3 ([1]; 10 nM ET-3, 40 hours): potent down-regulator
inhibition of 125I-labeled ET-1 binding (ETB receptors): inhibited to the same extent

IETD
blocking of down-regulation of E-cadherin by ET-1 [5]: able to block

cyclo(D-Glu-L-Ala-allo-D-Ile-L-Leu-D-Trp) [BE-18257B]
IC50 (ETA receptors; aortic smooth muscle): 1400 nM
IC50 (ETA receptors; cultured aortic smooth muscle cells): 500 nM
IC50 (ETA receptors; ventricle membranes): 800 nM
IC50 (ETB receptors; tissues in which ETB receptors predominate, read-out: concentration up to which binding is not inhibited): > 100 µM
